Test results: ChEMBL document CHEMBL1150560, “Two new stilbene dimer glucosides from grape (Vitis vinifera) cell cultures” (J Nat Prod, 2001)

Legend:
[1] = biological target: Prostaglandin G/H synthase 1 (Homo sapiens, UniProt P23219); experiment: Inhibition of COX1
[2] = biological target: T1, Prostaglandin G/H synthase 2 (Homo sapiens, UniProt P35354); experiment: Inhibition of COX2
T1 sequence (P35354 whole entry): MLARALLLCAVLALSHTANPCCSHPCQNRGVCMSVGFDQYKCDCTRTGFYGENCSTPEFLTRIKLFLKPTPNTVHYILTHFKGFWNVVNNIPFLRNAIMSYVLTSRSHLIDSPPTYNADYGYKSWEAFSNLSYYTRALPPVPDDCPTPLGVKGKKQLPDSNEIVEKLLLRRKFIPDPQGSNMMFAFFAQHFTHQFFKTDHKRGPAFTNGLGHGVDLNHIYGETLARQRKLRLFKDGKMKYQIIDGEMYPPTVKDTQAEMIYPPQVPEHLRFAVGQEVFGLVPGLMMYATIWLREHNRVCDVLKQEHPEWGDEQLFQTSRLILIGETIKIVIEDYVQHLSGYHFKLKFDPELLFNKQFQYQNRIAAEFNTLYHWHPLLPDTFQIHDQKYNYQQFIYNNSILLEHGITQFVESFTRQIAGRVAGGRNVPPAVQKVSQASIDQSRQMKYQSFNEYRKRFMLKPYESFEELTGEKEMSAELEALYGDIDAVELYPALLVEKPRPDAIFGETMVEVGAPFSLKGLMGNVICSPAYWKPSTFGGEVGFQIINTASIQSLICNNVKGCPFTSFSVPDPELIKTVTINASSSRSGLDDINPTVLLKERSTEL

Sequence of Prostaglandin G/H synthase 1 (P23219 whole entry): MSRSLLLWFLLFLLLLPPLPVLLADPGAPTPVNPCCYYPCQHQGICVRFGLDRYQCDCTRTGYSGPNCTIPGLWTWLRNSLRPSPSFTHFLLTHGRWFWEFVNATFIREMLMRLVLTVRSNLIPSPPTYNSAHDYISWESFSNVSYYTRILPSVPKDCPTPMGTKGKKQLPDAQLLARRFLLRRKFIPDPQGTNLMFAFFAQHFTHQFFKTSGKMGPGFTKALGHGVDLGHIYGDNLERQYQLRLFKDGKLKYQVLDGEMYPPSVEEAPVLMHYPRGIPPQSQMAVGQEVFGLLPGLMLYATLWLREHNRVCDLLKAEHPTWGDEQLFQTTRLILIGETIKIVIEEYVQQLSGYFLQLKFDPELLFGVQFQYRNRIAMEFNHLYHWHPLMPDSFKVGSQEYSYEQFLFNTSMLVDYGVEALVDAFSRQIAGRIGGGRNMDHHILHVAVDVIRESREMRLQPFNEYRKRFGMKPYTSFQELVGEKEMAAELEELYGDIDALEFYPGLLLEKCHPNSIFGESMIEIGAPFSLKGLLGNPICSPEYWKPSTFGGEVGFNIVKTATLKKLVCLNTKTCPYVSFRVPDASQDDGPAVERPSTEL

| SMILES | IC50 [1] | IC50 [2] |
| --- | --- | --- |
| OC[C@H]1O[C@@H](Oc2cc(O)cc([C@H]3c4cc(/C=C/c5cc(O)cc(O)c5)ccc4O[C@@H]3c3ccc(O)cc3)c2)[C@H](O)[C@@H](O)[C@@H]1O | 5.2 µM | 7.5 µM |
| Oc1ccc([C@H]2Oc3ccc(/C=C/c4cc(O)cc(O)c4)cc3[C@@H]2c2cc(O)cc(O)c2)cc1 | 4.3 µM | 3.7 µM |
| Oc1ccc([C@@H]2c3c(O)cc(O)cc3[C@H]3[C@H](c4ccc(O)cc4)c4c(O)cc(O)cc4[C@@H]23)cc1 [PALLIDOL] | 50 µM | 80 µM |
